Where a name gives a salt, the structure may show the parent alone. Read-outs that look alike come from different tables or passages of the source. Where a SMILES comes first, the peptide text is derived from it. The star is where a group is joined. Cbz = O=C(OCc1ccccc1)*
Assays:
[1] = test system: cAMP-response element (CRE) / CREB pathway; experiment: LOPAC1280 qHTS, 4×CRE-driven FLuc-P2A-RLuc coincidence reporter (pCI-6.24) in GripTite 293 MSR cells; assay type: cell-based
Procedure: This protocol measures bioluminescence derived from both FLuc and RLuc expression from a single assay. […] Sixteen hours after transfection, cells were trypsinized and then dispensed at 2,000 cells/20 μL/well in 384-well tissue culture treated white/solid bottom plates (Greiner Bio-One North America, Monroe, N.C.). The assay plates were incubated at 37° C. for 10 hours before adding the DUAL-GLO detection reagent (Promega). Luminescence from luciferase activity was detected by using a VIEWLUX plate reader (PerkinElmer, Waltham, Mass.).
Sixteen hours after transfection, cells were trypsinized and then dispensed at 500 cells/4 μL/well in 1,536-well tissue culture treated white/solid bottom plates (Greiner Bio-One North America) using a multidrop combi dispenser (Thermo Fisher Scientific). […] The assay plates were incubated at 37° C. for 10 hours before adding the DUAL-GLO detection reagent (3.5 μL+3.5 μL for each well) (Promega). Luminescence from luciferase activity was detected by using VIEWLUX (PerkinElmer). Each experimental plate contained forskolin as a positive control and DMSO as a negative control. Percentage activity was defined as the percentage signal relative to forskolin (100%) and DMSO (0%).

[2] = test system: cAMP-response element (CRE), adenylyl cyclase signaling; experiment: Compound test, 24-point titration, 4×CRE-driven FLuc-P2A-RLuc (pCI-6.24), 384-well; assay type: cell-based; details: PTC124 on FLuc, BTS on RLuc; relative to non-treated control
Procedure: For the compound test, forskolin, PTC124 and BTS were prepared in a 24-point intraplate titration format and pre-diluted in the cell culture medium. Purified pCI-6.24 construct was transfected into GRIPTITE 293 MSR cells (Life Technologies). Sixteen hours post transfection, cells were trypsinized and then dispensed at 2,000 cells/15 μL/well in 384-well tissue culture treated white/solid bottom plates (Greiner Bio-One North America). Five μL of pre-diluted compound was transferred into assay plates, resulting in a final concentration ranging from 0.027 nM to 227 μM (forskolin) and 0.011 nM to 91 μM (PTC124 and BTS). The assay plates were incubated at 37° C. for 10 hours. FLuc and RLuc activities were then detected using DUAL-GLO reagent (Promega) and a VIEWLUX plate reader (PerkinElmer). Concentration-response curves and concentrations of half-maximal activity (EC50) for each compound were generated by using PRISM 4 software (GraphPad Software, Inc., La Jolla, Calif.).

[3] = test system: PARK2 (Parkin) gene expression; experiment: Compound library screening, Parkin coincidence reporter cell line (FLuc-P2A-NLuc in PARK2 locus, BE(2)-M17 cells), 1536-well; assay type: cell-based, human; details: 24 h, titration
Procedure: Construction of the Parkin coincidence reporter cell line by TALEN-mediated genome editing was carried out as follows. To generate a double-strand cleavage of the genomic DNA in the first codon of the PARK2 gene, constructs encoding transcription activator-like effector nuclease (TALEN) pairs (Right and Left) encoding components of the heterodimeric FokI nuclease were generated as described by Huang et al., Nature Biotechnology, 29: 699-700 (2011). The TALEN pair was designed to generate a double-strand cleavage at or near the first translation codon (ATG) within the Parkin gene. These constructs were transfected with Lipofectamine LTX (Life Technologies) into BE(2)-M17 cells (ATCC) […] along with a GFP-expressing marker plasmid and the coincidence reporter donor plasmid. After 48 hours of incubation in a tissue culture incubator, GFP-positive cells were sorted by FACS analysis and single clones were isolated and expanded. Once sufficient cell populations for each clone were achieved, analysis of correct genomic insertion of the Fluc-P2A-NLuc-PEST-PolyA coincidence reporter cassette that replaced the “ATGATAG” (SEQ ID NO: 362) sequence at the […] of the PARK2 gene exon 1 was ascertained by PCR and DNA sequencing of genomic DNA preparations (QIAGEN).
Compound library screening in 1536-well plates was carried out as follows. The Parkin coincidence reporter cell line was seeded at a density of 2000 cell/well into white, solid bottom, tissue-culture treated (Greiner Bio-One), 1536-well microplates in a total of 5 μL/well of culture medium. After a 16 hour incubation in a tissue-culture incubator, a compound pin tool (Wako) was used to transfer 20 nL of compound dissolved in DMSO for library plates to the assay plates. Compounds were present in either a 6 or 12-point titration in the library plates. DMSO vehicle, CCCP, and PTC-124 were also added to the designated control well. After a 24 hour incubation in the tissue culture incubator, the volume in each well of both plates was reduced to 2 μL with a microplate aspiration system (BioTek) and then 2 μL of Firefly Luciferase assay reagent (Promega) was added to every well each plate and luminescent signal from each well of each plate was measured on a VIEWLUX plate reader (PerkinElmer). Following the first read, 2 μL of NanoLuc assay reagent (Promega) including a proprietary firefly luciferase inhibitor (to quench the firefly reaction) was added to every well of each plate. After a second 15 minute incubation at room temperature, the NanoLuc signal from each well of each plate was measured on the VIEWLUX. Raw luminescent signal is expressed as a % of the positive control (10 uM CCCP for NanoLuc and 500 nM PTC-124 for FLuc).

[4] = Table 5, coincident activators; FLuc readout, 10 h, ~4 nM to 57 μM; read-out: FLuc EC50
[5] = Table 5, coincident activators; RLuc readout, 10 h, ~4 nM to 57 μM; read-out: RLuc EC50
[6] = GripTite 293 MSR, 10 h, Table 5, coincident activators; FLuc readout, 10 h, ~4 nM to 57 μM; read-out: FLuc EC50
[7] = GripTite 293 MSR, 10 h, Table 5, coincident activators; RLuc readout, 10 h, ~4 nM to 57 μM; read-out: RLuc EC50
[8] = Table 6, compounds activating RLuc only; RLuc readout, 10 h; read-out: RLuc EC50
[9] = GripTite 293 MSR; Table 6, compounds activating RLuc only; RLuc readout, 10 h; read-out: RLuc EC50
[10] = GripTite 293 MSR, 10 h, Table 6, compounds activating RLuc only; RLuc readout, 10 h; read-out: RLuc EC50

Compound | Ratio F/R ([1]; FLuc EC50 / RLuc EC50, Table 5) | EC50 [1, 6] | EC50 [1, 7] | other results
NC(=S)c1ccc[n+]([C@@H]2OC(COP(=O)([O-])OP(=O)(O)OC[C@H]3O[C@@H](n4cnc5c(N)ncnc54)[C@H](OP(=O)(O)O)[C@@H]3O)C(O)C2O)c1 (stereo in doubt) [compound 15, Thio-NADP sodium] | 0.95 |  |  | EC50 [1, 4]: 2.39 µM; EC50 [1, 5]: 2.51 µM
Cc1ccc(S(=O)(=O)NCc2ccccc2)cc1 [BTS] |  |  |  | effect on reporter activity by reporter stabilization [2]: increase the activity of the reporters
CC(C)C[C@@H](C=O)NC(=O)[C@H](CC(C)C)NC(=O)[C@H](CC(C)C)NC(=O)OCc1ccccc1 [MG-132] (Cbz-Leu-Leu-Leu-aldehyde) |  |  |  | coincident reporter response (FLuc and NLuc) [3]: do not elicit a coincident reporter response; signal obtained through reporter interference [3]: NLuc signal is obtained through reporter interference
O=c1c(O)c(-c2ccc(O)c(O)c2)oc2cc(O)cc(O)c12 [Quercetin] |  |  |  | coincident reporter response (FLuc and NLuc) [3]: elicits a coincidence response from both FLuc and NLuc; modulation of endogenous Parkin expression [3]: genuine modulator of endogenous Parkin expression
Oc1ccc(C=Cc2cc(O)cc(O)c2)cc1 [Resveratrol] |  |  |  | coincident reporter response (FLuc and NLuc) [3]: do not elicit a coincident reporter response; signal obtained through reporter interference [3]: FLuc signal is obtained through reporter interference
Cc1ccccc1CNc1ncnc2c1ncn2[C@@H]1O[C@H](CO)[C@@H](O)[C@H]1O [compound 3, Metrifudil] | 2.20 | 1.34 µM | 0.61 µM | 
Nc1nc(Nc2ccccc2)nc2c1ncn2[C@@H]1O[C@H](CO)[C@@H](O)[C@H]1O [compound 4, 2-Phenylaminoadenosine] | 0.95 | 10.7 µM | 11.2 µM | 
OC[C@H]1O[C@@H](n2cnc3c(NC4CCCCC4)ncnc32)[C@H](O)[C@@H]1O [compound 5, N6-Cyclohexyladenosine] | 0.67 | 16.9 µM | 25.1 µM | 
OC[C@H]1O[C@@H](n2cnc3c(NC4CCCC4)ncnc32)[C@H](O)[C@@H]1O [compound 6, N6-Cyclopentyladenosine] | 0.75 | 0.95 µM | 1.26 µM | 
OC[C@H]1O[C@H](n2cnc3c(N[C@H]4CCC[C@@H]4O)ncnc32)[C@H](O)[C@@H]1O [compound 7, GR 79236X] | 0.85 |  |  | EC50 [1, 4]: 2.69 µM; EC50 [1, 5]: 3.16 µM
Nc1ccc(CCNc2ncnc3c2ncn3[C@@H]2O[C@H](CO)[C@@H](O)[C@H]2O)cc1 [compound 8, N6-2-(4-Aminophenyl)ethyladenosine] | 1.56 | 1.45 µM | 0.93 µM | 
CNC(=O)[C@H]1O[C@@H](n2cnc3c(NCc4ccc(N)cc4)ncnc32)[C@H](O)[C@@H]1O [compound 9, AB-MECA] | 3.51 |  |  | EC50 [1, 4]: 1.51 µM; EC50 [1, 5]: 0.43 µM
Nc1nc(Cl)nc2c1ncn2[C@@H]1O[C@H](CO)[C@@H](O)[C@H]1O [compound 11, 2-Chloroadenosine] | 1.13 | 0.43 µM | 0.38 µM | 
CNc1ncnc2c1ncn2[C@@H]1O[C@H](CO)[C@@H](O)[C@H]1O [compound 12, N6-Methyladenosine] | 1.26 | 16.7 µM | 13.3 µM | 
CCNC(=O)[C@H]1O[C@@H](n2cnc3c(N)ncnc32)[C@H](O)[C@@H]1O [compound 13, 5′-N-Ethylcarboxamidoadenosine] | 0.56 |  |  | EC50 [1, 4]: 0.3 µM; EC50 [1, 5]: 0.54 µM
CCCCC#Cc1nc(NC)c2ncn([C@@H]3O[C@H](CO)[C@@H](O)[C@H]3O)c2n1 [compound 14, HEMADO] | 1.78 |  |  | EC50 [1, 4]: 2.69 µM; EC50 [1, 5]: 1.51 µM
NC(=O)C1=CN([C@@H]2O[C@H](COP(=O)(O)OP(=O)(O)OC[C@H]3O[C@@H](n4cnc5c(N)ncnc54)[C@H](OP(=O)(O)O)[C@@H]3O)[C@@H](O)[C@H]2O)C=CC1 [compound 16, NADPH tetrasodium] | 0.81 |  |  | EC50 [1, 4]: 18.2 µM; EC50 [1, 5]: 22.4 µM
Nc1nc(Cl)nc2c1ncn2[C@@H]1O[C@H](COP(=O)([O-])OP(=O)([O-])OP(=O)([O-])[O-])[C@@H](O)[C@H]1O.[Na+].[Na+].[Na+].[Na+] [compound 17, 2-Chloroadenosine triphosphate tetrasodium] | 2.96 | 11.5 µM | 3.89 µM | 
CNc1cc(NS(=O)(=O)c2ccc(N)cc2)nc(NC)n1 [compound 20, Ro 04-6790 hydrochloride] |  |  |  | EC50 [1, 8]: 2.05 µM
C[C@H](Cc1ccccc1)Nc1ncnc2c1ncn2[C@@H]1O[C@H](CO)[C@@H](O)[C@H]1O [cpd 1, R(−)-N6-(2-Phenylisopropyl)adenosine] | 3.32 |  |  | EC50 [1, 4]: 9.37 µM; EC50 [1, 5]: 2.82 µM
OC[C@H]1O[C@@H](n2cnc3c(Nc4ccccc4)ncnc32)[C@H](O)[C@@H]1O [cpd 2, N6-Phenyladenosine] | 0.87 | 12.7 µM | 14.6 µM | 
C#CCOC(=O)C1=CCCN(C)C1 [cpd 18, Arecaidine propargyl ester hydrobromide (APE)] | 1.16 |  |  | EC50 [1, 4]: 3.59 µM; EC50 [1, 5]: 3.09 µM; FLuc and RLuc signal outputs in the screen ([1]; qHTS, both reporters): coincident FLuc and RLuc signal outputs
NC(=O)COc1c(F)cc(SCCNS(=O)(=O)c2ccccc2)cc1F [cpd 21, 2,6-Difluoro-4-[2-(phenylsulfonylamino)ethylthio]phenoxyacetamide] |  |  |  | EC50 [1, 9]: 21.4 µM
NCCNS(=O)(=O)c1cccc2c(Cl)cccc12 [cpd 22, A3 hydrochloride] |  |  |  | EC50 [1, 8]: 15.8 µM
COc1ccc(Cl)cc1C(=O)NCCc1ccc(S(=O)(=O)NC(=O)NC2CCCCC2)cc1 [cpd 23, Glybenclamide] |  |  |  | EC50 [1, 10]: 30.4 µM
CC1=NS(=O)(=O)c2cc(Cl)ccc2N1 [cpd 24, Diazoxide] |  |  |  | EC50 [1, 10]: 9.15 µM
N#CC(=C(/N)Sc1ccccc1N)/C(C#N)=C(\N)Sc1ccccc1N [cpd 25, U0126] |  |  |  | EC50 [1, 9]: 8.49 µM
O=C(c1ccc(OCCN2CCCCC2)cc1)c1c(-c2ccc(O)cc2)sc2cc(O)ccc12 [cpd 26, Raloxifene hydrochloride] |  |  |  | EC50 [1, 10]: 12 µM
